Measurements reported in PubChem BioAssay (NCI).
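Growth conditions: 96-well plates. Treatment: test compound, 48 hours, 5 concentrations. Analysis: linear interpolation between bracketing concentrations; unreached endpoints set to highest concentration. Abbreviation: GI50, concentration required for 50% inhibition of growth. At the TGI there is no net growth.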

Experiments:
Test in all cases: NCI-60 cell line screen, 48 h
OVCAR-3 ovarian = system: OVCAR-3 ovarian
NCI-H226 lung = system: NCI-H226 lung
ACHN renal = system: ACHN renal
SW-620 colon = system: SW-620 colon
SF-268 CNS = system: SF-268 CNS
MOLT-4 leukemia = system: MOLT-4 leukemia
A549 NSCLC = system: A549 NSCLC
NCI-H522 lung = system: NCI-H522 lung
HOP-92 NSCLC = system: HOP-92 NSCLC
HOP-62 NSCLC = system: HOP-62 NSCLC

Row | Structure (SMILES) | TGI (OVCAR-3 ovarian) [µM] | TGI (NCI-H226 lung) [µM] | TGI (ACHN renal) [µM] | TGI (SW-620 colon) [µM] | TGI (SF-268 CNS) [µM] | TGI (MOLT-4 leukemia) [µM] | TGI (A549 NSCLC) [µM] | TGI (NCI-H522 lung) [µM] | TGI (HOP-92 NSCLC) [µM] | TGI (HOP-62 NSCLC) [µM] | GI50 (OVCAR-3 ovarian) [µM] | GI50 (NCI-H226 lung) [µM] | GI50 (ACHN renal) [µM] | GI50 (SW-620 colon) [µM] | GI50 (SF-268 CNS) [µM] | GI50 (MOLT-4 leukemia) [µM] | GI50 (A549 NSCLC) [µM] | GI50 (NCI-H522 lung) [µM] | GI50 (HOP-92 NSCLC) [µM] | GI50 (HOP-62 NSCLC) [µM]
1 | Cc1cc(O)c(O)c(Oc2cc(C)cc(O)c2O)c1 | > 100 | 75.1 | 79.9 | > 100 | 95 | > 100 | > 100 | 34.8 | 41.1 | > 100 | – | – | – | – | – | – | – | – | – | –
2 | C(=C\c1nc2ccccc2s1)/c1ccc(N2CCOCC2)s1 | > 100 | > 100 | > 100 | > 100 | > 100 | > 100 | > 100 | > 100 | 95.3 | > 100 | 61.7 | 43.3 | 33.4 | > 100 | 44 | > 100 | 31.8 | 49.2 | 35.7 | 45.5
3 | CC(=O)OC1CC(C)c2c(Cl)ncnc21 (stereo not given) | > 100 | > 100 | > 100 | > 100 | > 100 | > 100 | > 100 | 41.7 | > 100 | > 100 | > 100 | > 100 | > 100 | > 100 | > 100 | > 100 | > 100 | 18 | > 100 | > 100
4 | COc1ccc(CCN2COc3ccc4ccc(=O)oc4c3C2)cc1OC | > 100 | > 100 | > 100 | 69 | > 100 | > 100 | > 100 | > 100 | > 100 | > 100 | – | – | – | – | – | – | – | – | – | –
5 | COc1ccc(OC)c(-c2cc(C(=O)O)c3cc4ccccc4cc3n2)c1 | > 100 | > 100 | > 100 | > 100 | > 100 | > 100 | > 100 | > 100 | > 100 | > 100 | – | – | – | – | – | – | – | – | – | –
6 | CNC(=O)OCc1cc2ccncc2c2c1[nH]c1ccccc12 | > 100 | > 100 | > 100 | > 100 | > 41.8 | > 85.3 | > 100 | > 100 | > 100 | 55 | – | – | – | – | – | – | – | – | – | –
7 | CCC[CH2][Ge]([CH2]CCC)([CH2]CCC)[O]C(=O)C(OC(C)=O)c1ccccc1 (stereo not given) | 8.52 | 19.7 | 19.8 | 20.6 | 27.8 | > 100 | 30.9 | 8.88 | 12.3 | 16.1 | 0.731 | 0.351 | 2.76 | 4.59 | 1.46 | 0.153 | 3.37 | 0.304 | 0.438 | 2.18
8 | CS(=O)(=O)c1ccc(-c2[nH]c3ccc(F)cc3c2/C=N/NC(N)=S)cc1 | 12.1 | > 100 | > 100 | > 100 | > 100 | 24 | > 100 | 3.75 | 52.9 | > 100 | 0.446 | 3.28 | 2.17 | 0.575 | 2.42 | 0.981 | 2.86 | 0.466 | 0.574 | 1.64
9 | N#Cc1nc(Nc2ccc(Cl)cc2)sc1N | > 61.8 | > 71.7 | 23.6 | > 69.1 | > 77.9 | 29.2 | > 67.1 | 11.3 | 52.1 | 46 | – | – | – | – | – | – | – | – | – | –
10 | O=c1cc(-c2ccccc2)nc2cc(-c3ccco3)[nH]n12 | 37.1 | > 100 | > 100 | > 100 | > 100 | > 100 | > 100 | 40.7 | 93.3 | > 100 | 10.8 | 47.9 | 22.6 | 4.51 | 14.9 | 10.7 | 12.6 | 6.77 | 10.5 | 13.4
11 | COC(=O)c1cc(NC(=O)CN(CCN(CC(=O)O)CC(=O)Nc2ccc(O)c(C(=O)OC)c2)CC(=O)O)ccc1O | > 100 | > 100 | > 100 | > 100 | > 100 | > 100 | > 100 | > 100 | > 100 | > 100 | > 100 | > 100 | 36.7 | 74.9 | 43.2 | 28.5 | 64.8 | 46.4 | > 100 | 42.3
